Experiments:
PK2 EFE [1] = target: T1, PK2 EFE (Pseudomonas savastanoi, UniProt P32021); assay: succinate production by LC-MS/MS versus 2OG concentration; assay type: biochemical; parameters: recombinant from E. coli, His6 tag removed with TEV protease, apoprotein after EDTA/DTT treatment; conditions: no L-Arg (uncoupled decarboxylation), 0.2 mM Fe(II), 0.4 mM L-ascorbate, 25 mM HEPES pH 7.5, 22 °C
PK2 EFE [2] = target: T1, PK2 EFE; conditions: 1 mM 2OG, 1 mM L-Arg, 0.4 mM Fe(II), 1 mM L-ascorbate, 25 mM HEPES pH 7.5, room temperature

T1 sequence (P32021 whole entry): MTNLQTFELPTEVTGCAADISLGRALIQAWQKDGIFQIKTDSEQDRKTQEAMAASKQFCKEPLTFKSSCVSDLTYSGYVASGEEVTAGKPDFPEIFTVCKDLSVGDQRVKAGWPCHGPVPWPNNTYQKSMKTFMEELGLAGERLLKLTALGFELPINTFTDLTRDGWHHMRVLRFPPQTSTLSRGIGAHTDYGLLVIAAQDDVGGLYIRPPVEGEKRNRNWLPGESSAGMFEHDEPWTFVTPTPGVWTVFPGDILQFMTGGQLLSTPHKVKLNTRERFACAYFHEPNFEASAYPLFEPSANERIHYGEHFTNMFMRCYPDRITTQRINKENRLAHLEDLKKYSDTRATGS

SMILES | succinate production by LC-MS/MS versus 2OG concentration (PK2 EFE [1]) | ethylene by GC and P5C by 2-aminobenzaldehyde assay (partition ratio) (PK2 EFE [2])
O=C(O)CCC(=O)C(=O)O [2OG] | such an uncoupled reaction occurs in both Pd1 and PK2 versions of EFE | 
N=C(N)NCCC[C@H](N)C(=O)O [L-Arg] |  | we compared the ethylene/P5C partition ratios for PK2 EFE and Pd1 EFE
